Data as given in patent US20160045505A1, “COMPOUNDS AND COMPOSITIONS FOR THE TREATMENT OF PARASITIC DISEASES” (NOVARTIS AG, priority 2013, published 2016).

Legend:
[1] = system: Leishmania donovani axenic amastigote parasites; assay: Leishmania donovani axenic amastigote proliferation assay (Cell TiterGlo luminescence, 2 day incubation); type: cell-based; conditions: Leishmania donovani, axenic amastigotes, inhibition of proliferation; read-out: L. donovani amastigotes EC50
[2] = system: L. donovani HU3 strain in mouse peritoneal macrophages; assay: Assay for proliferation of Leishmania parasites in infected mouse peritoneal macrophages (SybrGreen staining, high-content imaging, 5 days); type: cell-based, Leishmania donovani; conditions: Leishmania donovani, Peritoneal macrophage, L. donovani in mouse peritoneal macrophages, inhibition of proliferation; read-out: L. donovani Macrophage EC50
[3] = system: Trypanosoma brucei Lister 427 strain, bloodstream form; assay: Assay for proliferation of kinetoplastid parasite Trypanosoma brucei (Cell Titer Glo, 48 hours); type: cell-based; conditions: Trypanosoma brucei, T. brucei Lister 427 bloodstream form, inhibition of proliferation; read-out: T. brucei EC50
In short: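 Bloodstream-form T. brucei Lister 427 in HMI-9 medium was exposed to compound (DMSO vehicle) for 48 hours at 37° C, 5% CO2. Parasite growth was read as ATP by CellTiter-Glo luminescence, with EC50 calculated from percent inhibition.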

[4] = system: Trypanosoma cruzi amastigotes (Tulahuen strain expressing Lac-Z) cultured in 3T3 fibroblast cells; assay: microbe, parasite or virus in culture; type: cell-based; conditions: Trypanosoma cruzi, TULAHUEN, Fibroblast, T. cruzi amastigotes in 3T3 fibroblast cells, inhibition of proliferation; read-out: T cruzi EC50

SMILES | EC50 [1] [nM] | EC50 [2] [nM] | EC50 [3] [nM] | EC50 [4] [nM]
Cc1nc(C)c(C(=O)Nc2ccc(F)c(-c3cn4cc(C(F)(F)F)cnc4n3)c2)o1 [Compound 200] | 219 | 631 | 164 | 147
Cc1ncc(C(=O)Nc2ccc(F)c(-c3cn4cc(C(F)(F)F)cnc4n3)c2)o1 [Compound 201] | 58 | 208 | 460 | 126
Cc1ncc(C(=O)Nc2cccc(-c3cn4cc(NC(=O)OC(C)C)cnc4n3)c2)o1 [Compound 202] | 229 | 2720 | 249 | > 20000
CC(C)OC(=O)Nc1cnc2nc(-c3cccc(NC(=O)c4cnco4)c3)cn2c1 [Compound 203] | 970 | 13800 | 1160 | 10600
Cc1ncoc1C(=O)Nc1cccc(-c2cn3cc(NC(=O)OC(C)C)cnc3n2)c1 [Compound 204] | 941 | 19200 | 676 | 4100
Cc1nc(C)c(C(=O)Nc2ccc(F)c(-c3cn4cc(Cl)cnc4n3)c2)o1 [Compound 205] | 300 | 1240 | 352 | 413
CC(=O)Nc1cnc2nc(-c3cc(NC(=O)c4cnc(C)o4)ccc3F)cn2c1 [Compound 206] | 3190 | > 50000 | > 50000 | > 20000
Cc1nc(C)c(C(=O)Nc2ccc(F)c(-c3cn4cc(C(F)F)cnc4n3)c2)o1 [Compound 208] | 134 | 445 | 108 | 100
Cc1ncc(C(=O)Nc2ccc(F)c(-c3cn4cc(C(F)F)cnc4n3)c2)o1 [Compound 209] | 87 | 317 | 169 | 130
Cc1nc(C)c(C(=O)Nc2ccc(F)c(-c3cn4cc(C5CCC5)cnc4n3)c2)o1 [Compound 210] | 47 | 85 | 34 | 31
Cc1ncc(C(=O)Nc2ccc(F)c(-c3cn4cc(C5CCC5)cnc4n3)c2)o1 [Compound 211] | 21 | 55 | 29 | 16
CNc1cnc2nc(-c3cc(NC(=O)c4oc(C)nc4C)ccc3F)cn2c1 [Compound 212] | 1120 | 4150 | 1010 | 1300
CON(C)C(=O)Nc1ccc(Cl)c(-c2cn3cc(NC(=O)OC(C)C)cnc3n2)c1 [Compound 214] | 90 | 785 | 40 | 154
CC(C)OC(=O)Nc1cnc2nc(-c3cc(NC(=O)N4CCOCC4)ccc3Cl)cn2c1 [Compound 216] | 4430 | > 50000 | 3130 | 11500
CC(C)OC(=O)Nc1cnc2nc(-c3cc(NC(=O)N4CCNC4=O)ccc3Cl)cn2c1 [Compound 217] | > 25000 | > 50000 | > 50000 | 7060
CC(C)OC(=O)Nc1cnc2nc(-c3cc(NC(=O)N(C)CC(F)(F)F)ccc3F)cn2c1 [Compound 222] | 109 | 424 | 67 | 419
Cc1nc(C)c(C(=O)Nc2ccc(F)c(-c3cn4cc(NC(=O)N5CCNC5=O)cnc4n3)c2)o1 [Compound 224] | 1410 | > 50000 | 757 | > 20000
CN(C)C(=O)Nc1ccc(F)c(-c2cn3cc(Cl)cnc3n2)c1 [Compound 225] | 1610 | 8250 | 468 | 1200
CC(C)OC(=O)Nc1cnc2nc(-c3cc(NC(=O)N4CC[C@H](F)C4)ccc3F)cn2c1 [Compound 227] | 3740 | > 50000 | 4370 | 4910
CC(C)OC(=O)Nc1cnc2nc(-c3cc(NC(=O)N(C(C)C)C(C)C)ccc3F)cn2c1 [Compound 228] | > 25000 | 19500 | 34500 | 9990
